According to patent publication US8530497B2, “Crystalline salts of a potent HCV inhibitor” (Boehringer Ingelheim International GmbH, priority 2010, dated 2013):

What was measured:
[1] = Intrinsic dissolution rate (Van Kel VK7000 dissolution tester, Wood's die); assay type: physicochemical; settings: for Dissolution Rate: pH 6.8 (20 mM sodium phosphate), 37° C., 100 rpm
Method: 6. Dissolution Studies Intrinsic dissolution rates were evaluated using Van Kel VK7000 dissolution tester and 400 mL dissolution bath with a rotation rate of 100 rpm at 37° C. Samples were prepared using approximately 50 mg of API in a 6 mm diameter Wood's die with compression force of 3 kN and 15 seconds dwell time by Carver press. The test was performed in 400 mL of pH 6.8 (20 mM sodium phosphate). Samples were collected at 2, 5, 10, 15, 20, 25, and 30 minutes, and the collected samples were unfiltered or filtered using […] PDVF filter. The concentrations of the drug were determined by HPLC using isocratic Method with fluorescence detection.

[2] = Dynamic Vapor Sorption (DVS) moisture gain; assay type: physicochemical; settings: through 85% RH at 25° C.; for hygroscopic properties (DVS): conditions used in the analysis
Method: 4. Dynamic Vapor Sorption Dynamic water sorption analyses were performed using Surface Measurement Systems DVS or DVS-HT, or VTI SGA-100 instruments. Sample sizes ranged from 4 mg to 13 mg. Three cycles of water sorption/desorption were run at 25° C. with change of relative humidity from 5-10% increments from 5% to 95%. The criteria for the step were weight change less than or equal to 0.002% or maximum time of 3 hours.

dissolution rate compared with the sodium salt ([1]; pH 6.8) | Dissolution Rate [1] [µg/min/mL] | moisture gain by Dynamic Vapor Sorption [2] [%] | hygroscopic properties (DVS) [2] | dissolution rate relative to the sodium salt or HEA ([1]; pH 6.8) [fold] | Structure (SMILES)
comparable to the sodium salt | 1.1 | < 2.5 | non-hygroscopic |  | C=C[C@@H]1C[C@]1(NC(=O)[C@@H]1C[C@@H](Oc2cc(-c3csc(NC(=O)C(C)C)n3)nc3c(Br)c(OC)ccc23)CN1C(=O)[C@@H](NC(=O)OC1CCCC1)C(C)(C)C)C(=O)O [HEA]
 | 1.3 |  |  |  | C=C[C@@H]1C[C@]1(NC(=O)[C@@H]1C[C@@H](Oc2cc(-c3csc(NC(=O)C(C)C)n3)nc3c(Br)c(OC)ccc23)CN1C(=O)[C@@H](NC(=O)OC1CCCC1)C(C)(C)C)C(=O)O [NA]
 | 64.4 | < 4 | non-hygroscopic or slightly hygroscopic | > 10 | C=C[C@@H]1C[C@]1(NC(=O)[C@@H]1C[C@@H](Oc2cc(-c3csc(NC(=O)C(C)C)n3)nc3c(Br)c(OC)ccc23)CN1C(=O)[C@@H](NC(=O)OC1CCCC1)C(C)(C)C)C(=O)O [TH]
